According to ChEMBL document CHEMBL1201862, “PubChem BioAssay data set” (2004):
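Grown in 96-well plates, cells were treated for 48 hours with each compound at five concentrations. Insufficient inhibition: endpoint recorded as highest concentration tested. The concentration for 50% growth inhibition is given as GI50.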 Calls of active or inactive are those of the source. Cut-off read from the data, not from the text of the source: active = GI50 up to about 1.1 µM and inactive = higher.

What was measured:
Test in all cases: growth of human tumour cells (NCI), 48 h
ACHN = system: ACHN
CAKI-1 = system: CAKI-1
COLO 205 = system: COLO 205
HL-60 = system: HL-60
Hs-578T = system: Hs-578T
LOX IMVI = system: LOX IMVI
M14 = system: M14
MCF7 = system: MCF7
MDA-MB-231 = system: MDA-MB-231
MDA-N = system: MDA-N
NCI-H226 = system: NCI-H226
NCI-H522 = system: NCI-H522
NCI/ADR-RES = system: NCI/ADR-RES
OVCAR-8 = system: OVCAR-8
RXF 393 = system: RXF 393
SF-268 = system: SF-268
SK-OV-3 = system: SK-OV-3
SNB-75 = system: SNB-75
U-251 = system: U-251
UACC-62 = system: UACC-62

Measured: GI50

CC(NNC(=O)c1ccncc1)c1ccc(F)cc1 (stereo not given)
inactive: ACHN > 100 µM | CAKI-1 > 100 µM | COLO 205 > 100 µM | HL-60 80 µM | Hs-578T > 100 µM | LOX IMVI > 100 µM | M14 41.8 µM | MCF7 > 100 µM | MDA-MB-231 > 100 µM | MDA-N > 100 µM | NCI-H226 > 100 µM | NCI-H522 > 100 µM | NCI/ADR-RES > 100 µM | OVCAR-8 > 100 µM | RXF 393 > 100 µM | SF-268 > 100 µM | SK-OV-3 > 100 µM | SNB-75 > 100 µM | U-251 > 100 µM | UACC-62 > 100 µM

Oc1ccccc1CNCc1ccccc1O
inactive: ACHN > 100 µM | CAKI-1 > 100 µM | COLO 205 34 µM | HL-60 > 100 µM | Hs-578T 39 µM | LOX IMVI 65.2 µM | M14 > 100 µM | MCF7 > 100 µM | MDA-MB-231 > 100 µM | MDA-N 39.8 µM | NCI-H226 > 100 µM | NCI-H522 > 100 µM | NCI/ADR-RES > 100 µM | OVCAR-8 > 100 µM | RXF 393 > 100 µM | SF-268 > 100 µM | SK-OV-3 > 100 µM | SNB-75 > 100 µM | U-251 > 100 µM | UACC-62 > 100 µM

CC1(C)[C@H]2Cc3cc(-c4cc5c(cn4)[C@@H]4C[C@H]([C@@H]5[C@@H]5c6cc(-c7cc8c(cn7)[C@@H]7C[C@H](C8)C7(C)C)ncc6[C@@H]6C[C@H]5C6(C)C)C4(C)C)ncc3[C@@H]1C2
inactive: ACHN > 100 µM | CAKI-1 > 100 µM | COLO 205 > 100 µM | HL-60 > 100 µM | Hs-578T > 100 µM | LOX IMVI > 100 µM | M14 > 100 µM | MCF7 > 100 µM | MDA-MB-231 > 100 µM | MDA-N > 100 µM | NCI-H226 > 100 µM | NCI-H522 > 100 µM | NCI/ADR-RES > 100 µM | OVCAR-8 > 100 µM | RXF 393 > 100 µM | SF-268 > 100 µM | SK-OV-3 > 100 µM | SNB-75 > 100 µM | U-251 > 100 µM | UACC-62 > 100 µM

O=C(O)c1ccccc1C(=O)NCC1S(=O)(=O)OCCOS1(=O)=O
inactive: ACHN > 100 µM | CAKI-1 > 100 µM | COLO 205 > 100 µM | HL-60 > 100 µM | Hs-578T > 100 µM | LOX IMVI > 100 µM | M14 > 100 µM | MCF7 > 100 µM | MDA-MB-231 > 100 µM | MDA-N > 100 µM | NCI-H226 > 100 µM | NCI-H522 > 100 µM | NCI/ADR-RES > 100 µM | OVCAR-8 > 100 µM | RXF 393 > 100 µM | SF-268 > 100 µM | SK-OV-3 > 100 µM | SNB-75 > 100 µM | U-251 > 100 µM | UACC-62 > 100 µM

Nc1c(S(=O)(=O)O)cc(S(=O)(=O)O)c2ccc(/N=N/c3ccccc3)c(O)c12
inactive: ACHN > 100 µM | CAKI-1 > 100 µM | COLO 205 > 100 µM | HL-60 > 100 µM | Hs-578T > 100 µM | LOX IMVI > 100 µM | M14 > 100 µM | MCF7 > 100 µM | MDA-MB-231 > 100 µM | MDA-N > 100 µM | NCI-H226 > 100 µM | NCI-H522 > 100 µM | NCI/ADR-RES > 100 µM | OVCAR-8 > 100 µM | RXF 393 > 100 µM | SF-268 > 100 µM | SK-OV-3 > 100 µM | SNB-75 > 100 µM | U-251 > 100 µM | UACC-62 > 100 µM
